Data: US20080113900A1, “Pharmaceutical compositions and therapeutic applications for the use of a synthetic vitamin B12 derivative, glutathionylcobalamin” (priority 2006, published 2008)
Values joined by “and” are separate entries in the source; they are usually repeats but may differ in a detail not shown here. Identical values can stand only once.

Key:
[1] = test system: Hsp32; assay: Hsp32 gene expression (RT-PCR, densitometry); assay type: cell-based, human; conditions: SK-HEP-1; Sn (IX) protoporphyrin 25 μM; Quercitin 15 μM
[2] = test system: SK-HEP-1 cells; assay: Protection of endothelial cells from H2O2-induced cell death (MTS assay); assay type: cell-based, human; parameters: key to Cell viability (MTS assay): cell viability as % survival; conditions: for Cell viability (MTS assay): SK-HEP-1, n = 6 replicates
Description: The effect of increasing concentrations of NACCbl and GSCbl to protect endothelial cells from the effect of H2O2 was assessed. […] Cell viability was determined by MTS® assay. […] FIG. 3 illustrates that NACCbl and GSCbl protect endothelial cells from the effect of H2O2. […] Cell viability was determined by MTS® assay. […] There was no difference between the protection afforded by NACCbl and that by GSCbl. Both required 100 μM to achieve >80% survival.

[3] = 2 hours, then 25 μM H2O2 24 hours

CC(=O)NC(C[S-])C(=O)O.CC1=C2N=C(C=C3N=C(C(C)=C4[N-]C(C(CC(N)=O)C4(C)CCC(=O)NCC(C)OP(=O)([O-])OC4C(CO)OC(n5cnc6cc(C)c(C)cc65)C4O)C4(C)N=C1C(CCC(N)=O)C4(C)CC(N)=O)C(CCC(N)=O)C3(C)C)C(CCC(N)=O)C2(C)CC(N)=O.[Co+3] [NACCbl, N-acetyl-L-cysteinylcobalamin]
Hsp32 gene expression [1]: induced
Difference between protection by NACCbl and by GSCbl ([2]; 25 μM H2O2 24 hours): no difference
Concentration required to achieve >80% survival [2, 3]: 100 µM
Preincubation concentration that protected cells from H2O2-induced cell death [2, 3]: ≥ 2.0 µM
Cell viability (MTS assay) ([2]; compound 30 μM two hours, then H2O2 200 μM a further two hours): 5.2108 and 7.153 and 1.99 and 0.6632
Cell viability (MTS assay) ([2]; compound concentration 6.25, 2 hours, then 25 μM H2O2 24 hours): 42.8195 and 42.09 and 39.39 and 30.9 and 28 and 38.4058
Cell viability (MTS assay) ([2]; compound concentration 12.5, 2 hours, then 25 μM H2O2 24 hours): 45.26 and 41.7 and 44.99 and 45.5863 and 42.23 and 47.36
Cell viability (MTS assay) ([2]; compound concentration 25, 2 hours, then 25 μM H2O2 24 hours): 46.9 and 46.77 and 45.26 and 42.69 and 45.72 and 48.16
Cell viability (MTS assay) ([2]; compound concentration 100, 2 hours, then 25 μM H2O2 24 hours): 61.5942 and 56.59 and 70.22 and 74.37 and 64.23 and 61.79
Cell viability (MTS assay) ([2]; compound concentration 200, 2 hours, then 25 μM H2O2 24 hours): 100.7246 and 99.7365 and 101.8445 and 107.3123 and 92.69 and 97.56
